Each block holds one compound with its values, some of them ahead of it.
Columns and labels:
[1] = tested on: Mast/stem cell growth factor receptor Kit (Homo sapiens), P10721 [D816V]; conditions: at 10 µM
[2] = molecular target: RAC-alpha serine/threonine-protein kinase (Homo sapiens, UniProt P31749); test: Selectivity interaction (ProQinase) EUB0000171b AKT1
[3] = molecular target: T1, Mitogen-activated protein kinase kinase kinase 5 (Homo sapiens) (UniProt Q99683); test: Selectivity interaction (Kinase panel (DSF assay)) EUB0001559a MAP3K5
T1 sequence (whole entry): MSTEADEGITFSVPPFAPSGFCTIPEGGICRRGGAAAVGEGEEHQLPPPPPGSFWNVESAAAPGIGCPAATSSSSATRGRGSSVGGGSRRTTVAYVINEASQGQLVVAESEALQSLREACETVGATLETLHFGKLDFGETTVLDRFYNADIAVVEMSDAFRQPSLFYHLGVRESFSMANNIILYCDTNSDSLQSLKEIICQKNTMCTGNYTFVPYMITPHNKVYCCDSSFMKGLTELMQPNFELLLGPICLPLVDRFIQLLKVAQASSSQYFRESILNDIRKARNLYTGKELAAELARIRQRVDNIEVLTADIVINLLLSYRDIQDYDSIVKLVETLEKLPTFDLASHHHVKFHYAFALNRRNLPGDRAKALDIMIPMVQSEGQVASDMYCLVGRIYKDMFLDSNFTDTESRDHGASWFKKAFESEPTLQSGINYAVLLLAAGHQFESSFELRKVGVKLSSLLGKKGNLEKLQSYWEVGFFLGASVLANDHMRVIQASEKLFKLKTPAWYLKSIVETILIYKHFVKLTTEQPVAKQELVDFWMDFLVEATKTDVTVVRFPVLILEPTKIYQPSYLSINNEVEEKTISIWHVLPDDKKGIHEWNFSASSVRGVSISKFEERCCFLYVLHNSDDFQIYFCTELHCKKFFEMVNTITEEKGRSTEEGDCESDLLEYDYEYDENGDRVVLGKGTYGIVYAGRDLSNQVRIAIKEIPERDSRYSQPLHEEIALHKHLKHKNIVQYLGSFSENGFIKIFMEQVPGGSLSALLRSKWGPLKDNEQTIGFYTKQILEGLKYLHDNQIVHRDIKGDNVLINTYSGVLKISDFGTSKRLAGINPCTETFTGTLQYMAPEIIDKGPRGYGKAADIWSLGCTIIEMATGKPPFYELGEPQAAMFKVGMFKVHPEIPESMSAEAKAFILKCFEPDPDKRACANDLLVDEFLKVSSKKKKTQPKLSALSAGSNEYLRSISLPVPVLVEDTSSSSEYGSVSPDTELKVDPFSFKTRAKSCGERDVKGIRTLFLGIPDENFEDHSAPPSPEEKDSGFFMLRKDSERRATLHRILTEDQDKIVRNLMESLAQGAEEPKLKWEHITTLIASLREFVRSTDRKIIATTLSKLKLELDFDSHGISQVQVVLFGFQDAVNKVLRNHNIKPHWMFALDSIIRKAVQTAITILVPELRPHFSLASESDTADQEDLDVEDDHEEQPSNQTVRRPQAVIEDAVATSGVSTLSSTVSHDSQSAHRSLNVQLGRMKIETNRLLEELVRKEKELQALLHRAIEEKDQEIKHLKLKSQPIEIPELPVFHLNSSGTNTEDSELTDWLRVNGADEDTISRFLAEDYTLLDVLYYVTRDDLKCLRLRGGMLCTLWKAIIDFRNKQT

[4] = molecular target: T2, Serine/threonine-protein kinase ULK3 (Homo sapiens) (UniProt Q6PHR2); test: Selectivity interaction (KinomeScan (DiscoverX)) EUB0001079a ULK3; conditions: at 1 µM
T2 sequence (whole entry): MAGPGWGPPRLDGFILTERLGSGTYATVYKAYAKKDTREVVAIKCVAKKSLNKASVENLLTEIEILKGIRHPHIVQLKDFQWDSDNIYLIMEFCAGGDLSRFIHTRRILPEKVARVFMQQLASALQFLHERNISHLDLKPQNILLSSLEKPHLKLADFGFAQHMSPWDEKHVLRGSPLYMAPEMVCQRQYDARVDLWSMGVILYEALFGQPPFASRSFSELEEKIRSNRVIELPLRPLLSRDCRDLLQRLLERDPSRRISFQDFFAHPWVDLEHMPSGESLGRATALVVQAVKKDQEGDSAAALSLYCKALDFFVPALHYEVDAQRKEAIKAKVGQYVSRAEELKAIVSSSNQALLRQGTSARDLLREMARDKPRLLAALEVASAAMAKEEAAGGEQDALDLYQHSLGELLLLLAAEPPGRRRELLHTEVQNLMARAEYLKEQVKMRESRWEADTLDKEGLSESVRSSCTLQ

[5] = molecular target: T3, Dual specificity mitogen-activated protein kinase kinase 5 (Homo sapiens) (UniProt Q13163); test: Selectivity interaction (KinomeScan (DiscoverX)) EUB0000229b MAP2K5; conditions: at 10 µM
T3 sequence (whole entry): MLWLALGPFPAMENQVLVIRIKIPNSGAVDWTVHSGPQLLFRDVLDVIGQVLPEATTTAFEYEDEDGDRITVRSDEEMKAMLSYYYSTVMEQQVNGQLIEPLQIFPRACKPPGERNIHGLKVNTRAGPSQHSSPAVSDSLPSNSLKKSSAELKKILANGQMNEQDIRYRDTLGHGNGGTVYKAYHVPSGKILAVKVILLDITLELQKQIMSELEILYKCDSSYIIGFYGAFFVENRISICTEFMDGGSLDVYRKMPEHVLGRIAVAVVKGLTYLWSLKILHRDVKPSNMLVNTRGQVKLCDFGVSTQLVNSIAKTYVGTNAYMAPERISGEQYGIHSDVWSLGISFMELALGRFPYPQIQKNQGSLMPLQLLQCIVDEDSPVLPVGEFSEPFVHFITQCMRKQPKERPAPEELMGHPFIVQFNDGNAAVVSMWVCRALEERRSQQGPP

[6] = molecular target: Ribosomal protein S6 kinase alpha-5 (Homo sapiens) (UniProt O75582); test: Selectivity interaction (KinomeScan (DiscoverX)) EUB0000092b RPS6KA5; conditions: at 10 µM
Sequence of Ribosomal protein S6 kinase alpha-5 (Homo sapiens) (O75582 whole entry, looked up): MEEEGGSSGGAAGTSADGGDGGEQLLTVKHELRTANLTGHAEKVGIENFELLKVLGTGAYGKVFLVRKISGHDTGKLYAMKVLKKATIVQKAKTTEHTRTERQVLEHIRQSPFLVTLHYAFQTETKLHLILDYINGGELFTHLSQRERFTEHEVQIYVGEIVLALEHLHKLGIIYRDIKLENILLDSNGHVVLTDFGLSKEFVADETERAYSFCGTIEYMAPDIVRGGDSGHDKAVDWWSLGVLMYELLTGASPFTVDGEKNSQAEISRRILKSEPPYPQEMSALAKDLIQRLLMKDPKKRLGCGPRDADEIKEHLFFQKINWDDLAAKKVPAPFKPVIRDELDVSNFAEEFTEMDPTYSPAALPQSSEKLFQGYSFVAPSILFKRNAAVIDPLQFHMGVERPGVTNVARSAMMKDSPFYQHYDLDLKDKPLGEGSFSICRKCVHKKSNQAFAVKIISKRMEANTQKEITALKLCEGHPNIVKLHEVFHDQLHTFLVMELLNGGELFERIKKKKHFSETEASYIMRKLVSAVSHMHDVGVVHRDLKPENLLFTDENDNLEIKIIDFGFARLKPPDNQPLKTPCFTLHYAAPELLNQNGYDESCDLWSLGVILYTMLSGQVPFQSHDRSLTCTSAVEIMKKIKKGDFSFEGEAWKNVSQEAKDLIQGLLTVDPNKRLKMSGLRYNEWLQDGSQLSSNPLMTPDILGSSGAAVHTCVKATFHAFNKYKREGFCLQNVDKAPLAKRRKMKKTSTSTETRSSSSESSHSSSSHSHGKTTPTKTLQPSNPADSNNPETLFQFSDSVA

Sequence of RAC-alpha serine/threonine-protein kinase (P31749 whole entry): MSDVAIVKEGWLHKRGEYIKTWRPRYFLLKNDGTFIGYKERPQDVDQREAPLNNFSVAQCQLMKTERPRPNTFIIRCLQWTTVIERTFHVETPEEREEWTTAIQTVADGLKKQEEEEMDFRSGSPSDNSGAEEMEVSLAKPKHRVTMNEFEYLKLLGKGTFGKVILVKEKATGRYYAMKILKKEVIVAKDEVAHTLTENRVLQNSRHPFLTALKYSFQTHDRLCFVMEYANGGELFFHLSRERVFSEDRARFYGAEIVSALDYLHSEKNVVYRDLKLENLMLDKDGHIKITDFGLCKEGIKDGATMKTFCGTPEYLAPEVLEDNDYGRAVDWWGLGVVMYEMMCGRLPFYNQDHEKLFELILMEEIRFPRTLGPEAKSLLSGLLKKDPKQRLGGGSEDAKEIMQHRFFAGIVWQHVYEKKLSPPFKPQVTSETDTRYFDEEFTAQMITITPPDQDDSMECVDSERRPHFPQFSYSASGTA
Sequence of Mast/stem cell growth factor receptor Kit (Homo sapiens), P10721 [D816V] (P10721 whole entry D816V): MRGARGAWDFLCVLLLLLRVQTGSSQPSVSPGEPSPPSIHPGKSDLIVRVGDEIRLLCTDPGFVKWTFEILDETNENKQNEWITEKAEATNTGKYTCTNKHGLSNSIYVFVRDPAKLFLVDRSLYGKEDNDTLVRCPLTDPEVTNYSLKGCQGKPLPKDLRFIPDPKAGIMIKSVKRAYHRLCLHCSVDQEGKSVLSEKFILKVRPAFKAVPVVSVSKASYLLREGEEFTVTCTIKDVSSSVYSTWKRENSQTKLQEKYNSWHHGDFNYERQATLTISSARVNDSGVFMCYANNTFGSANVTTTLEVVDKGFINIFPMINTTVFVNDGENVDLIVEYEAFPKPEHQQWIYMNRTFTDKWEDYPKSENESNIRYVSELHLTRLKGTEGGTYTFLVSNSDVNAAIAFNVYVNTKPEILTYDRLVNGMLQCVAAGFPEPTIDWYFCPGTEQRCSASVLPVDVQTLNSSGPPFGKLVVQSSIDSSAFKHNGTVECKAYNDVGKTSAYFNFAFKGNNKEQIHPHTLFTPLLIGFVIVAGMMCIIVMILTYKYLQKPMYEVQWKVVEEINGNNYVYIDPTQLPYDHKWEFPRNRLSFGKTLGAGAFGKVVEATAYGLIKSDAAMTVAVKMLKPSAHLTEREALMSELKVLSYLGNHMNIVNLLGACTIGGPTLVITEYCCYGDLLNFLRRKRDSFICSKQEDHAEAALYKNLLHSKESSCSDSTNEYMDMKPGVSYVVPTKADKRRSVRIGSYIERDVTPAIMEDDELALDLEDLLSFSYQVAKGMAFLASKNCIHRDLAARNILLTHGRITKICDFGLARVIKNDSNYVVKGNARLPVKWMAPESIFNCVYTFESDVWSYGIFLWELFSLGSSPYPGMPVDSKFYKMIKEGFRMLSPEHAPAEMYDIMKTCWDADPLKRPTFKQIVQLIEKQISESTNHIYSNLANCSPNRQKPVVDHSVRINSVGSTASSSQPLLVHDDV

% of control [1]: 100%
Compound: CCN(CC)CCCCNc1ncc2cc(-c3cc(OC)cc(OC)c3)c(NC(=O)NC(C)(C)C)nc2n1

% of control ([2]; at 1 µM): 84% | % of control ([2]; at 5 µM): 69%
Compound: C=CC(=O)Nc1cccc(C(=O)Nc2ccc(Nc3cc(-c4[nH]c(SC)nc4C)ccn3)cc2)c1

dTM [3]: -0.3 K
Compound: CN(C(=O)c1cnn2cccnc12)c1cc2c(cc1N1CCOCC1)C(=O)N(C[C@@H](F)C(C)(C)O)C2

Compound: Nc1cnc(N2CCc3cc(S(=O)(=O)Nc4c(F)cc(Cl)cc4F)cc(N4CCCC4=O)c32)nc1 [TP-020n]
% of control [4]: 100%

Compound: COc1cc(N(C)c2ccnc3ccc(C(F)(F)F)cc23)cc(OC)c1OC
% binding [5]: 86%

Compound: CCC(=O)N1CCN(c2ccc(-n3c(=O)ccc4cnc5ccc(-c6cnc7ccccc7c6)cc5c43)cc2C(F)(F)F)CC1
% of control [6]: 100%

Source: ChEMBL document CHEMBL5465560, “Selectivity Literature for EUbOPEN Chemogenomic Library” (2024)
